Data from PubChem BioAssay AID2433 (Vanderbilt High Throughput Screening Facility, 2010).
Activity calls are given as the source filed them.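 The calls were made as follows: active = a concentration-response curve whose fit quality R2 exceeds 0.5; inactive = the rest.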

Target: Muscarinic acetylcholine receptor M5 (Homo sapiens) (UniProt P08912)
Assay: M5 receptor positive allosteric modulation off-target check, dose response, selectivity assay for M1 muscarinic PAM project, cell-based, CHO-K1 M5, Fluo-4 calcium, ACh EC20 (AID 2433)
Details: CHO-K1 M5 cells; for % of max ACh response: at 30 µM (top of the series)

Sequence of Muscarinic acetylcholine receptor M5 (Homo sapiens) (P08912 whole entry, looked up): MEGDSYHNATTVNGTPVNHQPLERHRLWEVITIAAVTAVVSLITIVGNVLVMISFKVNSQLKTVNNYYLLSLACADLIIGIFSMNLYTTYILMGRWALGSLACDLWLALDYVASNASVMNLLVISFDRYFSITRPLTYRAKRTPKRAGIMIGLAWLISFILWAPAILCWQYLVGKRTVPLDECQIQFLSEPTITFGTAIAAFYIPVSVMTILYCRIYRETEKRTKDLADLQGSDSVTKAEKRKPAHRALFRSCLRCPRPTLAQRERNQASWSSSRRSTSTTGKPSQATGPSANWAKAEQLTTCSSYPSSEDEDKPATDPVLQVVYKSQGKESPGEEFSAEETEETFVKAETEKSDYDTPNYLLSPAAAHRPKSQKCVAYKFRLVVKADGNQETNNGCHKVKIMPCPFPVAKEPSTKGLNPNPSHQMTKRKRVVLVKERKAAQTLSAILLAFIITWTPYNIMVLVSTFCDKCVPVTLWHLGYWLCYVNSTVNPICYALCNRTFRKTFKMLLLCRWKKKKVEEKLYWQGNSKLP

% of max ACh response | EC50 | SMILES
inactive |  | Cn1cc(-c2cc(F)c(CN3C(=O)C(=O)c4ccccc43)c(F)c2)cn1
 | inactive | Cn1cc(-c2ccc(CN3C(=O)C(=O)c4ccccc43)cc2)cn1
inactive |  | Cn1cc(-c2ccc(CN3C(=O)C(=O)c4ccccc43)c(F)c2)cn1
